This passage reports IC50 results from patent US20060166866A1, “Cell adhesion inhibitors” (Biogen, Inc., a Massachusetts corporation, priority 1995, published 2006).

T1 sequence (P13612 34-1032): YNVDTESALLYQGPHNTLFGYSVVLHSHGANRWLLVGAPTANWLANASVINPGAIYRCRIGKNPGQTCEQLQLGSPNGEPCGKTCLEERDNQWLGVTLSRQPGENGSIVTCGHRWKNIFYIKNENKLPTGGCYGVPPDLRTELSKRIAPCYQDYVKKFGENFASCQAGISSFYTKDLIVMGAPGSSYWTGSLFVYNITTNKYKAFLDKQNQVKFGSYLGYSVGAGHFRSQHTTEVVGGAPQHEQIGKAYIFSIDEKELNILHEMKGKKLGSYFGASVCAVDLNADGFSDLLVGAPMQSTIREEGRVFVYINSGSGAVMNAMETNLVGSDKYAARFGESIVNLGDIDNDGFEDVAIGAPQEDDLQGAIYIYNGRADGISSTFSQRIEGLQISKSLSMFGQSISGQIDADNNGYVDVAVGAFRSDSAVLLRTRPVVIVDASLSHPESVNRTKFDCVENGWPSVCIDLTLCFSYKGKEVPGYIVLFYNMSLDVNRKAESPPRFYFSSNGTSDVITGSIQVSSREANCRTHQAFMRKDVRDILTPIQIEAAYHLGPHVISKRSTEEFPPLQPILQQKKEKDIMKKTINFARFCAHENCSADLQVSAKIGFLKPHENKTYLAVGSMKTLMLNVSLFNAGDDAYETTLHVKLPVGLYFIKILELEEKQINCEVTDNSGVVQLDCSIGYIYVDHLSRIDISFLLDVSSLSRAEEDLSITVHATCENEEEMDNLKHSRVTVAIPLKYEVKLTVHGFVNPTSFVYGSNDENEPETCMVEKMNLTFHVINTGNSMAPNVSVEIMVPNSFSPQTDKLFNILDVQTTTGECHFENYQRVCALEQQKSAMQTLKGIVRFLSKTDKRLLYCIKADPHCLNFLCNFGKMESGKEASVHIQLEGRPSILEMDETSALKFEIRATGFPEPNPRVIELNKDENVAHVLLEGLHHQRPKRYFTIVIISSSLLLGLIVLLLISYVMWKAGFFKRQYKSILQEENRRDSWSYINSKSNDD
T1 sequence (P05556 21-798): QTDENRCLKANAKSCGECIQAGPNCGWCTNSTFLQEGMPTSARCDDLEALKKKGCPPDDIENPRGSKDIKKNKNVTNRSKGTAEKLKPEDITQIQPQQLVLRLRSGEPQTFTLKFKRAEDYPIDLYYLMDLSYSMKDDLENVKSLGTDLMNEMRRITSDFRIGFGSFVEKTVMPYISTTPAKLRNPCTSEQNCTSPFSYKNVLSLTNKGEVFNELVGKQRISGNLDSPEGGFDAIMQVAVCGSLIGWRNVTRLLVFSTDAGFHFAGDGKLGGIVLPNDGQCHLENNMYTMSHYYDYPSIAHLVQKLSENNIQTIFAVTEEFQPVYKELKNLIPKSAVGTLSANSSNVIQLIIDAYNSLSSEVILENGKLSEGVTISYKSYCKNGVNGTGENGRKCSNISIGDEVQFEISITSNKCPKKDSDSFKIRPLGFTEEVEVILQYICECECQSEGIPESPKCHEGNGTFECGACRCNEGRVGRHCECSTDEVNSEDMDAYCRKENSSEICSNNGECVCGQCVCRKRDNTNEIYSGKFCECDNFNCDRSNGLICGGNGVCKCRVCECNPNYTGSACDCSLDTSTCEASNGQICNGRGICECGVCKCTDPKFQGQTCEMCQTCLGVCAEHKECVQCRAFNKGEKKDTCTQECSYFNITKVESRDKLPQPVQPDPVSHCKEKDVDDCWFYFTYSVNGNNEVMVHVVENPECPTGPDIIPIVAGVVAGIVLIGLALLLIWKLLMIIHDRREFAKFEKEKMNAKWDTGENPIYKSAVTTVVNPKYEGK

The assay addresses T1, VLA4 (Homo sapiens, UniProt P05556+P13612).
T1 construct: endogenous in cells; host or cells: Ramos cells
The assay is described as follows: Inhibition of VLA4-dependent adhesion to BSA-CS1 (fluorescently labelled Ramos cells). To be noted: binding of BCECF-labelled Ramos cells to CS1 peptide-coated wells, 2 mM MnCl2, 30 minutes at room temperature. Format: cell-based. The text has this: For example, the cell adhesion inhibitory activity of these compounds may be measured by determining the concentration of inhibitor required to block the binding of VLA-4-expressing cells to fibronectin- or CS1-coated plates. In this assay microtiter wells are coated with either fibronectin (containing the CS-1 sequence) or CS-1. If CS-1 is used, it must be conjugated to a carrier protein, such as bovine serum albumin, in order to bind to the wells. Once the wells are coated, varying concentrations of the test compound are then added together with appropriately labelled, VLA-4-expressing cells. Alternatively, the test compound may be added first and allowed to incubate with the coated wells prior to the addition of the cells. The cells are allowed to incubate in the wells format least 30 minutes. Following incubation, the wells are emptied and washed. Inhibition of binding is measured by quantitating the fluorescence or radioactivity bound to the plate for each of the various concentrations of test compound, as well as for controls containing no test compound.
VLA-4-expressing cells that may be utilized in this assay include Ramos cells, Jurkat cells, A375 melanoma cells, as well as human peripheral blood lymophocytes (PBLs). The cells used in this assay may be fluorescently or radioactively labelled.
This assay was used to assess the potency of VLA4-directed inhibitory compounds of this invention.
1. Conjugation of CS1 to BSA
We dissolved BSA-SMCC (Pierce Chemical, Rockford, Ill.; Catalog,# 77115) in H2O at a concentration of 10 mg/mL. [SEQ ID NO:4]:Cys-Tyr-Asp-Glu-Leu-Pro-Gln-Leu-Val-Thr-Leu-Pro-His-Pro-Asn-Leu-His-GIy-Pro-Glu-Ile-Leu-Asp-Val-Pro-Ser-Thr (“Cys-Tyr-CS1 peptide”), which we synthesized by conventional solid phase chemistry and purified by HPLC, was dissolved in 10 mM HEPES pH 5, 50 mM NaCl and 0.1 mM EDTA also at a concentration of 10 mg/mL. We then mixed 500 μL of BSA-SMCC, 250 μL of Cys-Tyr-CS1 peptide and 75 μL of […] and allowed the conjugation reaction to proceed for 30 minutes. We stopped the reaction by adding 1 μL of beta-mercaptoethanol. Samples were analyzed for cross-linking by SDS-PAGE. This reaction produced multiple molecules of the Cys-Tyr-CS1 peptide conjugate to each BSA molecule.
2. Preparation of Plates for Adhesion Assay
We coated the wells of a Linbro titertek polystyrene 96-well flat bottom plate (Flow Laboratories, Maclean, Va.; catalog #76-231-05) with 100 μL of the above-described BSA-CS1 solution diluted to 1 μg/mL in 0.05 M NaHCO3 (15 mM NaHCO3, 35 mM Na2CO3) pH 9.2. Some wells were not coated with CS1 in order to assess non-specific cell binding (NSB). The plate was then incubated overnight at 4° C.
Following this incubation, the contents of the wells were removed by inverting and blotting the plate. All of the wells were then blocked with 100 μL of 1% BSA in PBS, 0.02% NaN3, for a minimum of one hour at room temperature.
3. Preparation of Fluorescently Labelled Ramos Cells
Ramos cells are grown, maintained and labelled in RPMI 1640 culture medium containing 1% BSA. Just prior to running the assay, we added 2′,7′-bis-(2-carboxyethyl)-5 (and -6) carboxyfluorescein acetoxymethyl ester (“BCECF-AM”; Molecular Probes Inc., Eugene, Oreg.; catalog #B-1150) to a final concnetration of 2 μM to a culture of Ramos cells (4×10^6 cells/mL). We incubated the cells for 20 minutes at 37° C.
Following labelling, the cells were washed twice in assay buffer (24 mM TRIS, 137 mM NaCl, 2.7 mM KCl, pH 7.4, containing 0.1% BSA and 2 mM glucose) to remove any cations originating from the culture medium. The cells were then resuspended in assay buffer to 4×10^6 cells/mL and 2 mM MnCl2 was added to upregulate VLA4 on the surface of the cells.
Immediately prior to running the assay, we removed the BSA blocking solution from the 96-well plates and washed the wells with 100 μL of assay buffer. We then added to each well 25 μL of test compound at 2× the final concentration and 25 μL of the labelled Ramos cells. […]
What is called IC50 is the concentration that gives 50% inhibition. Lower therefore signals greater potency. Molecule `CC(C)CC(NC(=O)Cc1ccc(NC(=O)n2ccc3ccccc32)cc1)C(=O)NC(CC(=O)O)c1ccc2c(c1)OCO2` (stereo not shown) [BIO-1327] came in with an IC50 of 50 to 10000 nM.

As for `CC(C)CC(NC(=O)Cc1ccc(NC(=O)Nc2ccccc2)cc1)C(=O)NC(CC(=O)O)c1ccc2c(c1)OCO2` (stereo not shown) [BIO-1128], the IC50 lay in the range of 50 to 10000 nM.

In turn, `COC(=O)c1ccc(C(CC(=O)O)NC(=O)C(CCSC)NC(=O)Cc2ccc(NC(=O)Nc3ccccc3C)cc2)cc1` (stereo not shown) [BIO-1361] yielded an IC50 of less than 50 nM.

The molecule `COC(=O)c1ccc(C(CC(=O)O)NC(=O)C(CC(C)C)NC(=O)Cc2ccc(NC(=O)Nc3ccccc3)cc2)cc1` (stereo not shown) [BIO-1388] returned a 50% inhibitory concentration (IC50) of less than 50 nM.

The molecule `CC(C)CC(NC(=O)CC(c1ccccc1)c1ccccc1)C(=O)NC(CC(=O)O)c1ccccc1` (stereo not shown) [BIO-1099] yielded an IC50 of more than 10000 nM.

`Cc1ccccc1NC(=O)Nc1ccc(CC(=O)NC(CC(C)C)C(=O)NC(CC(=O)O)c2ccc3c(c2)CCO3)cc1` (stereo not shown) [BIO-1360] came in with an IC50 of less than 50 nM.

`Cc1ccccc1NC(=O)Nc1ccc(CC(=O)NC(CC(C)C)C(=O)NC(CCc2ccccc2)CC(=O)O)cc1` (stereo not shown) [BIO-1400] displayed an IC50 of less than 50 nM.

Consider `COc1cccc(C(CC(=O)O)NC(=O)C(CC(C)C)NC(=O)Cc2ccccc2)c1` (stereo not shown) [BIO-1160], for which the IC50 lay in the range of 50 to 10000 nM.

In the case of `COc1ccc(C(CC(=O)O)NC(=O)C(CC(C)C)NC(=O)Cc2ccc(NC(=O)Nc3ccccc3C)cc2)cc1OC` (stereo not shown) [BIO-1212], the half-inhibitory concentration (IC50) is less than 50 nM.

As to `CC(C)CC(NC(=O)Cc1ccc(Nc2nc3ccccc3o2)cc1)C(=O)NC(CC(=O)O)c1ccc2c(c1)OCO2` (stereo not shown) [BIO-1396], the IC50 was 50 to 10000 nM.

`C=CCC(CC(=O)O)NC(=O)C(CC(C)C)NC(=O)Cc1ccc(NC(=O)Nc2ccccc2C)cc1` (stereo not shown) [BIO-1515] displayed an IC50 of less than 50 nM.

Turning to `CC(C)CC(NC(=O)Cc1ccc(NC(=O)Nc2ccccc2)cc1)C(=O)NC(CC(=O)O)c1ccc(F)c(F)c1` (stereo not shown) [BIO-1195], the IC50 was less than 50 nM.

`CC(C)CC(NC(=O)Cc1ccc(NC(=O)NC(C)(C)C)cc1)C(=O)NC(CC(=O)O)c1ccc2c(c1)OCO2` (stereo not shown) [BIO-1076] came in with an IC50 of 50 to 10000 nM.

Take `Cc1ccccc1NC(=O)Nc1ccc(CC(=O)NC(CSCCN(C)C)C(=O)NC(CC(=O)O)c2ccc3c(c2)OCO3)cc1` (stereo not shown) [BIO-1345]: the IC50 is less than 50 nM.

Turning to `Cc1ccc(NC(=O)Nc2ccc(CC(=O)NC(CC(C)C)C(=O)NC(CC(=O)O)c3ccc4c(c3)OCO4)cc2)cc1` (stereo not shown) [BIO-1067], the IC50 lay in the range of 50 to 10000 nM.

In turn, `COc1ccc(C(CC(=O)O)NC(=O)C(CC(C)C)NC(=O)Cc2ccc(NC(=O)Nc3ccccc3F)cc2)cc1OC` (stereo not shown) [BIO-1525] displayed an IC50 of 50 to 10000 nM.

Molecule `CC(C)CC(NC(=O)Cc1ccc(NC(=S)Nc2ccccc2)cc1)C(=O)NC(CC(=O)O)c1ccc2c(c1)OCO2` (stereo not shown) [BIO-1358] came in with an IC50 of 50 to 10000 nM.

Turning to `Cc1ccccc1NC(=O)Nc1ccc(CC(=O)NC(CSCCCO)C(=O)NC(CC(=O)O)c2ccc3c(c2)OCO3)cc1` (stereo not shown) [BIO-1246], the IC50 is less than 50 nM.

In the case of `C#CC(CC(=O)O)NC(=O)C(CC(C)C)NC(=O)Cc1ccc(NC(=O)Nc2ccccc2C)cc1` (stereo not shown) [BIO-1490], the 50% inhibitory concentration (IC50) was less than 50 nM.

Consider `COc1ccc(C(CC(=O)O)NC(=O)C(CC(C)C)NC(=O)Cc2ccc(NC(=O)Nc3ccc(F)cc3)cc2)cc1OC` (stereo not shown) [BIO-1526], for which the IC50 was in the range of 50 to 10000 nM.

Molecule `CC(C)CC(NC(=O)Cc1ccc(NC(=O)c2ccc[nH]2)cc1)C(=O)NC(CC(=O)O)c1ccc2c(c1)OCO2` (stereo not shown) [BIO-1474] returned an IC50 of 50 to 10000 nM.

Molecule `CC(C)CC(NC(=O)Cc1ccc(NC(=O)c2c[nH]c3ccccc23)cc1)C(=O)NC(CC(=O)O)c1ccc2c(c1)OCO2` (stereo not shown) [BIO-1655] yielded an IC50 of 50 to 10000 nM.

With `CC(C)CNC(=O)C(CC(=O)O)NC(=O)C(CC(C)C)NC(=O)Cc1ccc(NC(=O)Nc2ccccc2)cc1` (stereo not shown) [BIO-1186], the IC50 is 50 to 10000 nM.

`C=CCNC(=O)Nc1ccc(CC(=O)NC(CC(C)C)C(=O)NC(CC(=O)O)c2ccc3c(c2)OCO3)cc1` (stereo not shown) [BIO-1475]: the IC50 is 50 to 10000 nM.

As to `CSCCC(NC(=O)Cc1ccc(NC(=O)Nc2ncccc2C)cc1)C(=O)NC(CC(=O)O)c1ccc2c(c1)OCO2` (stereo not shown) [BIO-1429], the IC50 was in the range of 50 to 10000 nM.

`Cc1ccccc1NC(=O)Nc1ccc(CC(=O)NC(CC(C)C)C(=O)NC(CC(=O)O)c2ccccc2)cc1` (stereo not shown) [BIO-1197] gave an IC50 of less than 50 nM.

`Cc1ccccc1NC(=O)Nc1ccc(CC(=O)NC(CC(C)C)C(=O)NCCC(=O)O)cc1` (stereo not shown) [BIO-1594] registered an IC50 of 50 to 10000 nM.

Molecule `CC(C)CC(NC(=O)Nc1ccc([N+](=O)[O-])cc1)C(=O)NC(CC(=O)O)c1ccccc1` (stereo not shown) [BIO-1108] came in with an IC50 of more than 10000 nM.

`COc1ccc(C(CC(=O)O)NC(=O)C(CCSC)NC(=O)Cc2ccc(NC(=O)Nc3ccccn3)cc2)cc1OC` (stereo not shown) [BIO-1347] came in with an IC50 of less than 50 nM.

Consider `Cc1ccccc1NC(=O)Nc1ccc(CC(=O)NC(CC(C)C)C(=O)NC(CC(=O)O)CN2CCOCC2)cc1` (stereo not shown) [BIO-1721], for which the IC50 was in the range of 50 to 10000 nM.

`O=C(O)CC(NC(=O)C(CSCc1ccccc1)NC(=O)Cc1ccc(NC(=O)Nc2ccccc2)cc1)c1ccccc1` (stereo not shown) [BIO-1136] displayed a half-maximal inhibitory concentration (IC50) of 50 to 10000 nM.

Turning to `CSCCC(NC(=O)Cc1ccc(NC(=O)Nc2ccccn2)cc1)C(=O)NC(CC(=O)O)c1ccc2c(c1)OCO2` (stereo not shown) [BIO-1393], the IC50 was less than 50 nM.

For the molecule `COC(=O)NCCCCC(NC(=O)Cc1ccc(NC(=O)Nc2ccccc2C)cc1)C(=O)NC(CC(=O)O)c1ccc2c(c1)OCO2` (stereo not shown) [BIO-1272], the IC50 is less than 50 nM.

Turning to `Cc1ccccc1NC(=O)Nc1ccc(CC(=O)NC(CC(C)C)C(=O)NC(C)CC(=O)O)cc1` (stereo not shown) [BIO-1536], the half-maximal inhibitory concentration (IC50) is less than 50 nM.

With `CC(C)CC(NC(=O)Cc1ccc(NC(=O)c2cc3ccccc3[nH]2)cc1)C(=O)NCCC(=O)O` (stereo not shown) [BIO-1648], the IC50 fell in the range of 50 to 10000 nM.

Regarding `COc1ccc(C(CC(=O)O)NC(=O)C(CC(C)C)NC(=O)Cc2ccc(NC(=O)Nc3ccccn3)cc2)cc1` (stereo not shown) [BIO-1194], the IC50 was less than 50 nM.

As to `COC(=O)NCCCCC(NC(=O)Cc1ccc(NC(=O)Nc2ncccc2C)cc1)C(=O)NC(CC(=O)O)c1ccc(OC)c(OC)c1` (stereo not shown) [BIO-1311], the IC50 lay in the range of 50 to 10000 nM.
